The values that follow come from ChEMBL document CHEMBL1139355, “Selectively targeting T- and B-cell lymphomas: a benzothiazole antagonist of alpha4beta1 integrin” (J Med Chem, 2009).

In this assay the target is Integrin alpha-4/beta-1 (Homo sapiens, UniProt P05556+P13612). The assay is described as follows: Inhibition of human integrin alpha-4-beta-1-mediated MOLT4 cell adhesion to biotin-conjugated CS-1 peptide. The assay is classed as cell-based, MOLT-4.
Sequence of Integrin alpha-4/beta-1 (P05556 whole entry): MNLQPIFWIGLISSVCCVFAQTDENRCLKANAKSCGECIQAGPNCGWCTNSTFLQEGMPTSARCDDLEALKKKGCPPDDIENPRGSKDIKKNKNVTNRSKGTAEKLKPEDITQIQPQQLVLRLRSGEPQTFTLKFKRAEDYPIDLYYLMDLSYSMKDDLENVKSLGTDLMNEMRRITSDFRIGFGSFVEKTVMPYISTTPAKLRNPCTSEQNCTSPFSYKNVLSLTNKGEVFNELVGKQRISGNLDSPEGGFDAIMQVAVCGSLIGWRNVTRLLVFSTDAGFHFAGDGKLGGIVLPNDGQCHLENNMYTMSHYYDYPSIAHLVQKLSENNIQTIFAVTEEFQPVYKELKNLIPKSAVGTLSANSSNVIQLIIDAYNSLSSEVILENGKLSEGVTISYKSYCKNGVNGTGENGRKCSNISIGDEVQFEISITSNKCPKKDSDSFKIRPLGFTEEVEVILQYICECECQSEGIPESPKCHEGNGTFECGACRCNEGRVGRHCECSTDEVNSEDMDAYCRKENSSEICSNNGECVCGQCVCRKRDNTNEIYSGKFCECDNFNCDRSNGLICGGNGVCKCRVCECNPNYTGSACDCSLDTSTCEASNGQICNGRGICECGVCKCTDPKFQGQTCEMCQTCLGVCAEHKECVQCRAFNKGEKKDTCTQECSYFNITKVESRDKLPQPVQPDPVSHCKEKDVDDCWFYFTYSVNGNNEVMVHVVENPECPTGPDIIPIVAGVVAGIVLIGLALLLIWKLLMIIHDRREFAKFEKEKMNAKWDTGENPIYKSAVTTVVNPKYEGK
Sequence of Integrin alpha-4/beta-1 (P13612 whole entry): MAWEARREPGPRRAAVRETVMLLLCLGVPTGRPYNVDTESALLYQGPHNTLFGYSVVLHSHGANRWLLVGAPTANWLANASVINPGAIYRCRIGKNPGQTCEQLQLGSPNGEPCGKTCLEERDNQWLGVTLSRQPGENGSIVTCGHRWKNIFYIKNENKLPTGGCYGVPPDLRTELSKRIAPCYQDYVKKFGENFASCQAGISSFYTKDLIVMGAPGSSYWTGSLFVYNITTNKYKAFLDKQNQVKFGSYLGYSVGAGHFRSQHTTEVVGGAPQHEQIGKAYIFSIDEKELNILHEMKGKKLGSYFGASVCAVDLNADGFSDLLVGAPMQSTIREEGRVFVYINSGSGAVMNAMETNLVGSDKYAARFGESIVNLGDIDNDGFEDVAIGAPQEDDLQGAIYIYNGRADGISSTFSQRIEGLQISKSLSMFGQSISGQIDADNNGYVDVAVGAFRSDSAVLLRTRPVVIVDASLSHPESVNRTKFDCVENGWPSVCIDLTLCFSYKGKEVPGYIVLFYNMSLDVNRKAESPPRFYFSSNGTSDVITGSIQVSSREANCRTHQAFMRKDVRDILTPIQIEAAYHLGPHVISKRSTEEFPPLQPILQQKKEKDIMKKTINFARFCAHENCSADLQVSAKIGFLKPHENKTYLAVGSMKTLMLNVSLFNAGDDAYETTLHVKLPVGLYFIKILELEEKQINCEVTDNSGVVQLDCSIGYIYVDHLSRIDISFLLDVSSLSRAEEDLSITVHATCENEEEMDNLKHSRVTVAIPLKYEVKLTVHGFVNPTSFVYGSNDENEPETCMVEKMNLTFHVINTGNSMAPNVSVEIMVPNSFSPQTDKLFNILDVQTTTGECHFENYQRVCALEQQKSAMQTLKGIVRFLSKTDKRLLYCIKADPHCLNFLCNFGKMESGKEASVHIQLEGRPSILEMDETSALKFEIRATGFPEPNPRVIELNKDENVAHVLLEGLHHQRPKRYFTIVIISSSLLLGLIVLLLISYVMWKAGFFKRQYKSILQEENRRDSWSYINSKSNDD
Turning to `NC(=O)C1(NC(=O)[C@@H](CCCC(=O)O)NC(=O)[C@@H](CCCCNC(=O)/C=C/c2cccnc2)NC(=O)Cc2ccc(Nc3nc4ccccc4s3)cc2)CCCCC1`, the IC50 came to 0.0525 nM.

`NC(=O)C1(NC(=O)[C@@H](CCCC(=O)O)NC(=O)[C@@H](CCCCNC(=O)/C=C/c2cccnc2)NC(=O)CCc2ccc(Nc3nc4cc(Br)ccc4[nH]3)cc2)CCCCC1`: the midpoint of inhibition, the IC50, lay at 378 nM.

With `NC(=O)C1(NC(=O)[C@@H](CCCC(=O)O)NC(=O)[C@@H](CCCCNC(=O)/C=C/c2cccnc2)NC(=O)c2ccc(Nc3nc4ccccc4s3)cc2)CCCCC1`, 346 nM corresponded to half-maximal inhibition (IC50).

On to `NC(=O)C1(NC(=O)[C@H](CCCC(=O)O)NC(=O)[C@H](CCCCNC(=O)/C=C/c2cccnc2)NC(=O)Cc2ccc(Nc3nc4ccccc4[nH]3)cc2)CCCCC1`, for which the IC50 came to 0.305 nM.

One may read the IC50 as the concentration that gives 50% inhibition. A low value points to inhibition by little substance.
